The values below come from patent US20240383870A1, “HETEROCYCLIC ALDEHYDE TRAPPING COMPOUNDS AND USES THEREOF” (Aldeyra Therapeutics, Inc., priority 2021, published 2024).

Holding throughout (format): in vivo
What all share (conditions): 200 mpk PO; LPS-challenged mice, plasma at 6.5 h; unpaired t-test vs vehicle

The subject of test [1] is leukemia inhibitory factor (LIF). The test is described as follows: Acute LPS-induced sepsis in C57BL/6 mice: leukemia inhibitory factor (LIF) cytokine detection assay. An excerpt:
FIG. 21 is a graph showing the results of a leukemia inhibitory factor (LIF) cytokine detection assay in samples collected from mouse subjects after administration of compounds of the present disclosure. LIF is an interleukin 6 class cytokine that affects cell growth by inhibiting differentiation.
(§1) The primary objective of this study was to collect plasma samples of lipopolysaccharide (LPS) challenged C57BL/6 mice after dose of test compounds to provide a cytokine profile as impacted by prophylactic treatments. This study models acute sepsis, which is a systemic inflammatory syndrome initiated by Gram-negative and Gram-positive bacteria and fungi which infect the lungs, abdomen, bloodstream, and renal or genitourinary tracts. Sepsis patients ultimately die of multiorgan failure which is caused by extensive tissue hypo-oxygenation due to ongoing microvascular leakage, disseminated intravascular coagulation, compromised energy production, and metabolic alterations. Sepsis is characterized by an early systemic inflammatory response phase featuring symptoms, such as tachycardia, fever, hyperventilation, and activation of the complement and coagulation cascades. However, it is now appreciated that a compensatory anti-inflammatory response phase follows, characterized by neuroendocrine-mediated immunosuppression. Since these processes are the result of interaction between cells of inflammation and organs, investigation of the treatment of this syndrome requires the use of intact animal models. The use of ten mice per group allows useful statistical modelling of the results.
(§2) For the data shown in Table 2A, 103 mice (female, 18-22 gram, C57BL/6) were purchased from ENVIGO. The mice were housed in 20 cages of 5 mice per cage with 1 cage of 3 mice as extra. The cages had filter tops and autoclaved bedding, and the animals were placed in quarantine with daily inspection. The treatment groups are detailed in Table 2A below. 10 mice were included in each group. The mice were dosed by oral gavage (PO) at 10 ml/kg as per the table below. MC=methyl cellulose.
(§3) For the data shown in Table 2B, 185 mice (female, 18-22 gram, C57BL/6) were purchased from ENVIGO. The mice were housed in 37 cages of 5 mice per cage. The cages had filter tops and autoclaved bedding, and the animals were placed in quarantine with daily inspection. The treatment groups are detailed in Table 2B below. 10 mice were included in each group. The mice were dosed by oral gavage (P0) at 10 ml/kg as per the table below. MC=methyl cellulose.
(§4) At T=0 h, the mice were dosed with one of the test compounds as described in the above table.
(§5) At T=0.5 h, the mice were injected IP with 1.5 mg/kg […] (Sigma).
(§6) At T=6.5 h, all mice were anesthetized and exsanguinated into pre-chilled EDTA-treated tubes. The blood was processed to plasma which was stored in labeled 0.5 polypropylene snap-cap tubes (0.5 mL Eppendorf Safe-Lock Tubes (Fisher Scientific) at −80° C.
(§7) Preparation of vehicle: 1.0 gram of methyl cellulose (Sigma) was dissolved in 200 mL of water (USP purified) to make a solution of 0.5% methyl cellulose in water. Preparation of LPS solution: 6 mg of LPS (from Escherichia Coli 055:B5, Cat #L2880, Sigma Lot #057m4013) was dissolved in 20 ml of saline to give a LPS solution of 0.3 mg/ml. All mice were injected with 5 ml/kg (1.5 mg/kg) at the scheduled time by intraperitoneal injection.
(§8) A 32-plex cytokine panel was obtained from Eve Technologies. Each cytokine was assessed based against a 7 point curve range in duplicate. […]

For test [2], the system named is MCP-1(CCL2). Briefly: Acute LPS-induced sepsis in C57BL/6 mice: MCP-1(CCL2) cytokine detection assay.
Test [3] relates to IL-1α. The test is described as follows: Acute LPS-induced sepsis in C57BL/6 mice: IL-1α cytokine detection assay.
Text: FIG. 5 is a graph showing the results of an IL-1α cytokine detection assay in samples collected from mouse subjects after administration of compounds of the present disclosure.
as §1, with “Since these processes are the result of interaction between cells of inflammation and organs, investigation of the treatment of this syndrome requires the use of intact animal models. The use of ten mice per group allows useful statistical modelling of the results.” left out
as §8

Test [4] relates to IL-3. Briefly: Acute LPS-induced sepsis in C57BL/6 mice: IL-3 cytokine detection assay.
Test [5] deals with LIX (CXCL5). Briefly: Acute LPS-induced sepsis in C57BL/6 mice: LIX (CXCL5) cytokine detection assay.
Text: FIG. 22 is a graph showing the results of a LIX (CXCL5) cytokine detection assay in samples collected from mouse subjects after administration of compounds of the present disclosure.
as §1, with “Since these processes are the result of interaction between cells of inflammation and organs, investigation of the treatment of this syndrome requires the use of intact animal models. The use of ten mice per group allows useful statistical modelling of the results.” left out
as §8

The test system of test [6] is IFNγ. The test is described as follows: Acute LPS-induced sepsis in C57BL/6 mice: IFNγ cytokine detection assay.
Test [7] concerns IL-15. The test is described as follows: Acute LPS-induced sepsis in C57BL/6 mice: IL-15 cytokine detection assay.
Test [8] deals with IL-9. The test is described as follows: Acute LPS-induced sepsis in C57BL/6 mice: IL-9 cytokine detection assay.
Text: FIG. 13 is a graph showing the results of an IL-9 cytokine detection assay in samples collected from mouse subjects after administration of compounds of the present disclosure.
as §1
(§9) For the data shown in Table 2A, 103 mice (female, 18-22 gram, C57BL/6) were purchased from ENVIGO. The mice were housed in 20 cages of 5 mice per cage with 1 cage of 3 mice as extra. The cages had filter tops and autoclaved bedding, and the animals were placed in quarantine with daily inspection. The treatment groups are detailed in Table 2A below. 10 mice were included in each group. The mice were dosed by oral gavage (PO) at 10 ml/kg as per the table below. MC=methyl cellulose. […]
as §8

Test [9] concerns VEGF. Briefly: Acute LPS-induced sepsis in C57BL/6 mice: VEGF cytokine detection assay.
Text: FIG. 30 is a graph showing the results of a VEGF cytokine detection assay in samples collected from mouse subjects after administration of compounds of the present disclosure.
as §1, with “Since these processes are the result of interaction between cells of inflammation and organs, investigation of the treatment of this syndrome requires the use of intact animal models. The use of ten mice per group allows useful statistical modelling of the results.” left out
as §8

In test [10] the test system is eotaxin. The test is described as follows: Acute LPS-induced sepsis in C57BL/6 mice: eotaxin cytokine detection assay.
Test [11] relates to KC. Briefly: Acute LPS-induced sepsis in C57BL/6 mice: KC cytokine detection assay.
Text: FIG. 20 is a graph showing the results of a KC cytokine detection assay in samples collected from mouse subjects after administration of compounds of the present disclosure.
as §1, §2, §3, §4, §5, §6, §7
(§10) A 32-plex cytokine panel was obtained from Eve Technologies. Each cytokine was assessed based against a 7 point curve range in duplicate. The average of the two replicate analyses was used for statistics. Unpaired t-tests were performed using Excel™ contrasting vehicle against each treatment group. One star indicates P<0.05. Two stars indicates P<0.01. Three stars indicates P<0.001. Four stars indicates P<0.0001. Most, but not all, statistically significant results are indicated with star(s).

The subject of test [12] is IL-13. The test is described as follows: Acute LPS-induced sepsis in C57BL/6 mice: IL-13 cytokine detection assay.
Text: FIG. 17 is a graph showing the results of an IL-13 cytokine detection assay in samples collected from mouse subjects after administration of compounds of the present disclosure.
as §1, §2, §3, §4, §5, §6, §7
A 32-plex cytokine panel was obtained from Eve Technologies. Each cytokine was assessed based against a 7 point curve range in duplicate. The average of the two replicate analyses was used for statistics. […]

Test [13] has as its system IL-10. The test is described as follows: Acute LPS-induced sepsis in C57BL/6 mice: IL-10 cytokine detection assay.
The test system of test [14] is TNFα. Briefly: Acute LPS-induced sepsis in C57BL/6 mice: TNFα cytokine detection assay.
Text: FIG. 29 is a graph showing the results of a TNFα cytokine detection assay in samples collected from mouse subjects after administration of compounds of the present disclosure.
as §1, §9, §8

The test system of test [15] is IL-17. Briefly: Acute LPS-induced sepsis in C57BL/6 mice: IL-17 cytokine detection assay.
Text: FIG. 19 is a graph showing the results of an IL-17 cytokine detection assay in samples collected from mouse subjects after administration of compounds of the present disclosure.
as §1
For the data shown in Table 2A, 103 mice (female, 18-22 gram, C57BL/6) were purchased from ENVIGO. The mice were housed in 20 cages of 5 mice per cage with 1 cage of 3 mice as extra. The cages had filter tops and autoclaved bedding, and the animals were placed in quarantine with daily inspection. The treatment groups are detailed in Table 2A below. 10 mice were included in each group. […] MC=methyl cellulose.
as §3, §4, §5
(§11) At T=6.5 h, all mice were anesthetized and exsanguinated into pre-chilled EDTA-treated tubes. […]
as §8

Test [16] deals with M-CSF (CSF1). The test is described as follows: Acute LPS-induced sepsis in C57BL/6 mice: M-CSF (CSF1) cytokine detection assay.
Text: FIG. 24 is a graph showing the results of an M-CSF (CSF1) cytokine detection assay in samples collected from mouse subjects after administration of compounds of the present disclosure. M-CSF causes hematopoietic stem cells to differentiate into macrophages.
as §1, §2, §3, §4, §5, §6, §7, §10

In test [17] the test system is IL-6. The test is described as follows: Acute LPS-induced sepsis in C57BL/6 mice: IL-6 cytokine detection assay.
Text: FIG. 11 is a graph showing the results of an IL-6 cytokine detection assay in samples collected from mouse subjects after administration of compounds of the present disclosure.
as §1, §2, §3, §4, §5, §11, §8

For the molecule `CC(O)(c1sc2cc(C(F)(F)F)ccc2c1N)C(F)(F)F` (centres unmarked) [Compound I-3, 2-(3-amino-6-(trifluoromethyl)benzo[b]thiophen-2-yl)-1,1,1-trifluoropropan-2-ol], the “LIF: significant cytokine change vs. vehicle” value in [1] is recorded as “* (One star indicates P<0.05)”. Besides, in test [2], the “MCP-1: significant cytokine change vs. vehicle” value is given as “**** (Four stars indicates P<0.0001)”. Also, the “IL-1a: significant cytokine change vs. vehicle” value in [3] is reported as “*** (Three stars indicates P<0.001)”. The “IL-3: significant cytokine change vs. vehicle” value in [4] is “**** (Four stars indicates P<0.0001)”. Besides, the “LIX: significant cytokine change vs. vehicle” value in test [5] is “* (One star indicates P<0.05)”. Further, the “IFNy: significant cytokine change vs. vehicle” value in [6] is reported as “**** (Four stars indicates P<0.0001)”. The “IL-15: significant cytokine change vs. vehicle” value in [7] is recorded as “** (Two stars indicates P<0.01)”. In test [8], the “IL-9: significant cytokine change vs. vehicle” value is reported as “*** (Three stars indicates P<0.001)”. In addition, in test [9], the “VEGF: significant cytokine change vs. vehicle” value is “* (One star indicates P<0.05)”. In test [10], the “Eotaxin: significant cytokine change vs. vehicle” value is recorded as “** (Two stars indicates P<0.01)”. Also, the “KC: significant cytokine change vs. vehicle” value in test [11] is recorded as “** (Two stars indicates P<0.01)”. The “IL-13: significant cytokine change vs. vehicle” value in test [12] is “*** (Three stars indicates P<0.001)”. In addition, in [13], the “IL-10: significant cytokine change vs. vehicle” value is recorded as “* (One star indicates P<0.05)”. For the same molecule, the “TNFa: significant cytokine change vs. vehicle” value in test [14] was “** (Two stars indicates P<0.01)”. In [15], the “IL-17: significant cytokine change vs. vehicle” value is “*** (Three stars indicates P<0.001)”. The “M-CSF: significant cytokine change vs. vehicle” value in test [16] was “** (Two stars indicates P<0.01)”. Moreover, in test [17], the “IL-6: significant cytokine change vs. vehicle” value is recorded as “** (Two stars indicates P<0.01)”.
